US12692274B2, “Tetrahydroisoquinoline derivatives for the treatment of red blood disorders and inflammatory diseases” (Sanofi, priority 2020, dated 2026)
Where “and” joins values, the source holds several entries; their conditions need not be identical. Identical values can stand only once.

Assays:
[1] = tested on: NQO1 activation in BEAS-2B cells; assay: BEAS-2B cellular MTT assay of NQO1 activation, 0.3% HSA; type: cell-based
Procedure, shortened: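 BEAS-2B cells (<70% confluent in culture, BEBM/SingleQuots without GA-1000) seeded in collagen plates with 0.3% or 0% HSA, reaching 95-100% confluency after 48 h at 37 °C, 5% CO2; MTT read-out.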

[2] = biological target: HIS-Keap1 full length / Biotin-Nrf2 (16-mer) (Homo sapiens, UniProt Q14145); assay: biochemical
HIS-Keap1 full length / Biotin-Nrf2 (16-mer), sequence (Q14145 whole entry): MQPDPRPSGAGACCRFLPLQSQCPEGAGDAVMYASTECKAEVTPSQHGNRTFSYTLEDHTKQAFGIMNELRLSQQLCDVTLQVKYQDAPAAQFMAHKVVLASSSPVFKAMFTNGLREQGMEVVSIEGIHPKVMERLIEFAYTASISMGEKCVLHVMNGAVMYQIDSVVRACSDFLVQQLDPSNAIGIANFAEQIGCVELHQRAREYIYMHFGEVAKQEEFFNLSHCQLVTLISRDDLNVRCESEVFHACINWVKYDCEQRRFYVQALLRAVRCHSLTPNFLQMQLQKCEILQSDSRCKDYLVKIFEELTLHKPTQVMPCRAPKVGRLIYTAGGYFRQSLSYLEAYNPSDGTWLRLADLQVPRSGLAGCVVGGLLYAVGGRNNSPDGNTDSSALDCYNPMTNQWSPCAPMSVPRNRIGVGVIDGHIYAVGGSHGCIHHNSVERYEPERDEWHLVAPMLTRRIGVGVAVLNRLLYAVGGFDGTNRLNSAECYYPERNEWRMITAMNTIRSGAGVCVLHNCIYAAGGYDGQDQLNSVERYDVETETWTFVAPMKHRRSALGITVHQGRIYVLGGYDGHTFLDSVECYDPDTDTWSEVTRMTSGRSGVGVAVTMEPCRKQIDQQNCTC

[3] = tested on: NQO1 activation in BEAS-2B cells; assay: BEAS-2B cellular MTT assay of NQO1 activation, 0% HSA; type: cell-based
Procedure, shortened: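 BEAS-2B cells grown in BEBM with BEGM SingleQuots (no GA-1000), kept below 70% confluence, seeded on collagen plates at a density giving 95-100% confluence after 48 h. Plates seeded in medium without HSA (0% HSA condition).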

[4] = BEAS+ W, read-out: BEAS+ W EC50
[5] = Homo sapiens, BEAS+ W, read-out: BEAS+ W EC50
[6] = Homo sapiens, Serum Free W, read-out: BEAS EC50 (nM) Serum Free W
[7] = Homo sapiens, BEAS+, read-out: BEAS+ EC50
[8] = Homo sapiens, serum free, read-out: BEAS EC50 (nM) serum free
[9] = serum free, read-out: BEAS EC50 (nM) serum free
[10] = Serum Free W, read-out: BEAS EC50 (nM) Serum Free W

SMILES | EC50 [1, 4] | EC50 [1, 5] | IC50 [2] | EC50 [3, 6] | EC50 ([1]; BEAS+, read-out: BEAS+ EC50) | EC50 [1, 7] | EC50 [3, 8] | EC50 [3, 9] | EC50 [3, 10]
Cc1c2ccc3c1nnn3CCCCCCc1ccc(c(F)c1)C(=O)N1CCc3ccc(cc3C1)[C@H]2[C@@H](C)C(=O)O [Compound 141] | 7040 nM | 7200 nM | > 990 nM | > 1000 nM | – | – | – | – | –
Cc1c2cnc3c1nnn3CCCCCc1cc(F)c(c(F)c1)C(=O)N1CCc3ccc(cc3C1)C2CC(=O)O (stereo not shown) [Compound 168] | – | – | 2.2 nM | – | 3.4 nM | 3.7 nM | 1.3 nM | 1.2 nM | –
Cc1c2ccc3c1nnn3CCCCCOc1ccc(cc1)C(=O)N1CCc3ccc(cc3C1)C2CC(=O)O (stereo not shown) [Compound 331] | – | – | 1.7 nM and 4.3 nM and 2.6 nM and 10.9 nM | – | – | 40.3 nM | 47.4 nM | – | –
O=C(O)CC1c2ccc3c(c2)CN(CC3)C(=O)c2ccc(cc2F)CCCCCCn2nnc3cc1ccc32 (stereo not shown) [Compound 278] | – | – | 1.8 nM (2×) and 1.4 nM and 1.3 nM | – | – | 159 nM | 136 nM | – | –
Cc1cc2ccc1C(=O)N1CCc3ccc(cc3C1)[C@H](CC(=O)O)c1cnc(cc1C)OCCCCC2 [Compound 99] | 79 nM | 108 nM | 8.8 nM and 8.4 nM | 23.9 nM | – | – | – | – | 25.6 nM
O=C(O)CC1c2ccc(nc2)OCCCCCc2ccc(cc2)C(=O)N2CCc3ccc1cc3C2 (stereo not shown) [Compound 300] | – | – | < 0.1 nM | – | 7.9 nM | 10.8 nM | 3.1 nM | 5.4 nM | –
Cc1cc2ncc1C(CC(=O)O)c1ccc3c(c1)CN(CC3)C(=O)c1ccc(cc1)OCCCCO2 (stereo not shown) [Compound 169] | – | – | 68.9 nM and 66.2 nM | – | 175 nM | 155 nM | 84.4 nM | 55.9 nM | –
C[C@H](C(=O)O)[C@@H]1c2ccc(nc2)OCCCCCc2ccc(cc2)C(=O)N2CCc3ccc1cc3C2 (single isomer, unassigned) [Compound 127] | – | – | 3.8 nM and 3.9 nM | – | 0.6 nM | 0.4 nM | 0.3 nM | – | –
COCCn1c2cc3cc(ccc31)CCCCCCn1nnc3c(C)c(ccc31)[C@@H](CC(=O)O)c1ccc3c(c1)CN(CC3)C2=O [Compound 85] | 244 nM | 249 nM | 1.6 nM and 1.2 nM | 39.4 nM | – | – | – | – | 61.3 nM
COc1cc2ccc1C(=O)N1CCc3ccc(cc3C1)[C@@H](CC(=O)O)c1cnc3c(nnn3CCCCC2)c1C [Compound 88] | 101 nM | 88.5 nM | 1 nM and 1.1 nM | 35.3 nM | – | – | – | – | 40.4 nM
O=C(O)CC1c2ccc3c(c2)CN(CC3)C(=O)c2ccc(c3ccccc23)OCCCCCn2nnc3cc1ccc32 (stereo not shown) [Compound 337] | – | – | 0.7 nM and 0.8 nM | – | – | 2540 nM | 1890 nM | – | –
CC(C(=O)O)C1c2ccc3c(c2)CN(CC3)C(=O)c2ccc(cc2)OCCCCCn2nnc3cc1ccc32 (stereo not shown) [Compound 325] | – | – | < 0.1 nM | – | – | 4 nM | 2.9 nM | – | –
Cc1c2ccc3c1nnn3CCCCCn1ccc3ccc(cc31)C(=O)N1CCc3ccc(cc3C1)C2CC(=O)O (stereo not shown) [Compound 393] | – | – | 3.8 nM and 4.3 nM | – | 2250 nM | 1890 nM | 2450 nM | 2110 nM | –
O=C(O)CC1c2cnc(nc2)OCCCCc2ccc(c(Cl)c2)C(=O)N2CCc3ccc1cc3C2 (stereo not shown) [Compound 226] | – | – | 245 nM | – | – | > 10000 nM | > 10000 nM | – | –
COc1cc2ccc1CCCCCCn1nnc3c(C)c(cnc31)[C@H](CC(=O)O)c1ccc3c(c1)CN(CC3)C2=O [Compound 95] | 124 nM | 92 nM | 1.8 nM and 1.9 nM | 53.1 nM | – | – | – | – | 64.8 nM
C[C@H](C(=O)O)[C@H]1c2ccc3c(c2)CN(CC3)C(=O)c2ccc(cc2)OCCCCCCn2nnc3cc1ccc32 [Compound 323] | – | – | 1.2 nM and 1.8 nM | – | – | 386 nM | 135 nM | – | –
C[C@H](C(=O)O)[C@@H]1c2ccc(nc2)OCCCCCc2ccc(cc2)C(=O)N2CCc3ccc1cc3C2 [Compound 55] | 354 nM | 482 nM | 215 nM and 226 nM and 220 nM and 201 nM | 125 nM | – | – | – | – | 147 nM
O=C(O)CC1c2ccc(nc2)OCCCCOc2ccc(cc2Cl)C(=O)N2CCc3ccc1cc3C2 (stereo not shown) [Compound 212] | – | – | 7.7 nM and 5.7 nM | – | 811 nM | 606 nM | 190 nM | 254 nM | –
O=C(O)C[C@@H]1c2ccc(nc2)OCCCCCc2ccc(cc2)C(=O)N2CCc3ccc1cc3C2 [Compound 173] | – | – | 12.5 nM and 12.4 nM | – | 13.1 nM | 12.8 nM | 3.7 nM | 4.3 nM | –
O=C(O)CC1c2ccc(nc2)OCCCCCc2cnc(c(F)c2)C(=O)N2CCc3ccc1cc3C2 (stereo not shown) [Compound 194] | – | – | 24.3 nM and 22.9 nM | – | 829 nM | 1080 nM | 870 nM | 1100 nM | –

SMILES | EC50 [1, 4] | EC50 [1, 5] | IC50 [2] | EC50 [3, 6] | EC50 ([1]; BEAS+, read-out: BEAS+ EC50) | EC50 [1, 7] | EC50 [3, 8] | EC50 [3, 9] | EC50 [3, 10]
Cc1c2ccc3c1nnn3CCCCCCOc1ccc(nn1)C(=O)N1CCc3ccc(cc3C1)C2CC(=O)O (stereo not shown) [Compound 380] | – | – | 5.9 nM and 5.4 nM | – | 1440 nM | 1230 nM | 1460 nM | 1390 nM | –
O=C(O)CC1c2cnc(nc2)OCCCCCc2ccc(c(F)c2)C(=O)N2CCc3ccc1cc3C2 (stereo not shown) [Compound 238] | – | – | 6.2 nM | – | 603 nM | 572 nM | 571 nM | 377 nM | –
Cc1c2ccc3c1nnn3CCCCCCc1ccc(cc1OC(F)(F)F)C(=O)N1CCc3ccc(cc3C1)[C@@H]2CC(=O)O [Compound 42] | 54.1 nM | 35 nM | 0.9 nM and 1.4 nM | 8.7 nM | – | – | – | – | –
Cc1c2ccc3c1nnn3CCCCCc1ccc(c3ncccc13)C(=O)N1CCc3ccc(cc3C1)[C@@H]2CC(=O)O [Compound 51] | 125 nM | 70.6 nM | 0.3 nM and 0.2 nM | 44.9 nM | – | – | – | – | 38.6 nM
O=C(O)CC1c2ccc(cc2)OCCCCCCOc2ccc(cc2)C(=O)N2CCc3ccc1cc3C2 (stereo not shown) [Compound 391] | – | – | 276 nM and 265 nM | – | 1950 nM | 2060 nM | 8.8 nM | 7.9 nM | –
O=C(O)CC1c2ccc3c(c2)CN(CC3)C(=O)c2ncc(cc2F)CCCCCn2nnc3c(Cl)c1ccc32 (stereo not shown) [Compound 215] | – | – | 1 nM and 1.1 nM | – | 310 nM | 349 nM | 243 nM | 251 nM | –
Cc1cc2cnc1OCCCCCc1ccc(cc1)C(=O)N1CCc3ccc(cc3C1)[C@H]2[C@H](C)C(=O)O [Compound 70] | 221 nM | 150 nM | 594 nM and 763 nM | 32.4 nM | – | – | – | – | 29.9 nM
Cc1cc2ncc1C(CC(=O)O)c1ccc3c(c1)CN(CC3)C(=O)c1cn(C)c3ccc(cc13)CCCCCO2 (stereo not shown) [Compound 126] | – | > 10000 nM | > 990 nM | > 1000 nM | – | – | – | – | –
O=C(O)CC1c2ccc3c(c2)CN(CC3)C(=O)c2ncc(cc2F)OCCCCCCn2nnc3c(Cl)c1ccc32 (stereo not shown) [Compound 213] | – | – | 1.5 nM and 1.6 nM | – | 126 nM | 147 nM | 118 nM | 98.4 nM | –
Cc1c2cnc3c1nnn3CCCCCc1cc(F)c(c(F)c1)C(=O)N1CCc3ccc(cc3C1)[C@@H]2CC(=O)O [Compound 136] | – | – | 1.4 nM and 1.3 nM | – | 24.3 nM | 15 nM | 10 nM | 7.3 nM | –
C[C@@H](C(=O)O)[C@@H]1c2ccc(nc2)OCCCCCc2cc(F)c(c(F)c2)C(=O)N2CCc3ccc1cc3C2 [Compound 164] | – | – | 51.2 nM and 59.3 nM | – | 34 nM | 32.6 nM | 16 nM | 20.3 nM | –
Cc1c2ccc3c1nnn3CCCCCCc1ccc(c(F)c1)C(=O)N1CCc3ccc(cc3C1)[C@H]2[C@H](C)C(=O)O [Compound 166] | 2.7 nM and 2.9 nM and 4.2 nM | 2.2 nM | 0.7 nM and 0.6 nM | 1.1 nM | – | – | – | – | –
Cc1c2cnc3c1nnn3CCCCCCOc1cc(F)c(c(F)c1)C(=O)N1CCc3ccc(cc3C1)[C@H]2CC(=O)O [Compound 208] | 27.2 nM | 25.1 nM | 1.1 nM | 10.1 nM | – | – | – | – | 14.9 nM
Cc1cc2ncc1[C@H]([C@H](C)C(=O)O)c1ccc3c(c1)CN(CC3)C(=O)c1ccc(cc1)C/C=C/CCO2 [Compound 62] | 0.4 nM and 0.3 nM | < 0.5 nM | 0.4 nM and 0.8 nM | 0.2 nM | – | – | – | – | 0.1 nM
Cc1c2ccc3c1nnn3CCCCCCn1cc(c3ccccc31)C(=O)N1CCc3ccc(cc3C1)C2CC(=O)O (stereo not shown) [Compound 373] | – | – | 3.6 nM and 3.9 nM | – | 3140 nM | 2030 nM | 2070 nM | 2030 nM | –
O=C(O)CC1c2ccc3c(c2)CN(CC3)C(=O)c2ccc(cn2)OCCCCCCn2nnc3c(Cl)c1ccc32 (stereo not shown) [Compound 214] | – | – | 2.3 nM and 2.1 nM | – | 241 nM | 234 nM | 245 nM | 132 nM | –
O=C(O)C[C@H]1c2cnc(nc2)OCCCCCc2c(F)c(F)c(c(F)c2F)C(=O)N2CCc3ccc1cc3C2 [Compound 45] | – | > 10000 nM | 229 nM and 244 nM | > 1000 nM | – | – | – | – | –
Cc1c2ccc3c1nnn3CCCCCCc1ccc(c(F)c1)C(=O)N1CCc3ccc(cc3C1)[C@@H]2[C@@H](C)C(=O)O [Compound 167] | 133 nM | 103 nM | 12.3 nM and 14.1 nM | 34.7 nM | – | – | – | – | 36.6 nM
Cc1c2ccc3c1nnn3CCCCCCOc1cnc(c(F)c1)C(=O)N1CCc3ccc(cc3C1)C2CC(=O)O (stereo not shown) [Compound 217] | – | – | 1.9 nM and 2.1 nM | – | 301 nM | 429 nM | 371 nM | 360 nM | –
